Like-named read-outs stand apart in the source and are kept apart here.
Columns and labels:
GAPDH = GAPDH expression level (internal control) in western blot, HCT116 cells; type: cell-based, human; details: HCT116, hypoxia 1% O2, 0-30 μM, 12 hours, FIG. 1
Description: (§1) First, HCT116 human colon cancer cells (ATCC #CCL-247) were plated at the concentration of 2×10^5 cells/ml. After 24 hours, the cells were incubated under hypoxia (1% O2, 94% N2, and 5% CO2, expressed as 1% O2 in FIG. 1) for 4 hours in order to induce HIF-la accumulation. Cells were treated with the compounds at various concentrations (0, 3, 10, 20, and 30 μM) for 12 hours under hypoxia. The cells were then harvested, and lysed in RIPA buffer to obtain nuclear extracts. Cells grown at 20% O2 (normoxia) were used as control groups to compare HIF-1α-mediated gene expression under each condition. 30 μg of the nuclear extracts per sample was separated by SDS-PAGE (sodium dodecyl sulfate-polyacrylamide gel electrophoresis), and was then transferred to PVDF (polyvinylidene fluoride membrane) membranes. After membranes were probed with HIF-1α antibodies (R&D System), HIF-1α proteins were detected with HRP-conjugated secondary antibodies (Amersham-Pharmacia). GAPDH (Glyceraldehyde 3-phosphate dehydrogenase) was used as an internal control for loading in western blot analysis.

HIF-1α = target: T1, HIF-1α (Homo sapiens, UniProt Q16665); assay: Inhibition of hypoxia-induced HIF-1α accumulation, western blot in HCT116 cells; type: cell-based; details: HCT116, hypoxia 1% O2, 0-30 μM, 12 hours, FIG. 1
T1 construct: endogenous in cells; host or cells: HCT116 human colon cancer cells (ATCC #CCL-247)
T1 sequence (Q16665 whole entry): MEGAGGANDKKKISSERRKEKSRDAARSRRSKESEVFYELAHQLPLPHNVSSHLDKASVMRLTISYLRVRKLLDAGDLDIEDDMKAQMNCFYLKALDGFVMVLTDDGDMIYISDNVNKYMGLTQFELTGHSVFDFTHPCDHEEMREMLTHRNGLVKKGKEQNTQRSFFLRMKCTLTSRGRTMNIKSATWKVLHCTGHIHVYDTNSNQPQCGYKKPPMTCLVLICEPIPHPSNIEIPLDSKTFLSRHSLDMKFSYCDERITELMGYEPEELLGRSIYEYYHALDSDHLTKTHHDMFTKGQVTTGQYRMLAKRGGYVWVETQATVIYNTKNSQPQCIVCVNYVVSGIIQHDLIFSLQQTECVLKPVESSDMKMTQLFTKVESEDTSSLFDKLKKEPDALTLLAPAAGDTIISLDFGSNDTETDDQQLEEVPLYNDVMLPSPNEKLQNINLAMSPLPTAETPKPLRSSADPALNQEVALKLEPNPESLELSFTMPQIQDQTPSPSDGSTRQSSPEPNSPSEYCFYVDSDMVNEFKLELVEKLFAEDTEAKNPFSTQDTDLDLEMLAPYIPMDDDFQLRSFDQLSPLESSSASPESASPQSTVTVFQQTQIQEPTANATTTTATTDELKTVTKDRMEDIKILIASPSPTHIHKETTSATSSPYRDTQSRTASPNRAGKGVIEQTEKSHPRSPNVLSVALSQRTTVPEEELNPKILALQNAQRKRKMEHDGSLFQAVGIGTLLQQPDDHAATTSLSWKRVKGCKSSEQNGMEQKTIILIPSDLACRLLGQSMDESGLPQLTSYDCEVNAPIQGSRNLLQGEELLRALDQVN
Description: <Experiment 2> In Vitro Studies for Inhibition of Hypoxia-Induced HIF-1α Accumulation
Inhibition of HIF-1α accumulation by the compounds according to the present invention was determined in HCT116 human colon cancer cells. In particular, western blot analysis was used to identify the compounds, I-3, I-6, I-8, I-16, I-19, I-22˜I-24, and I-27˜I-36, which inhibited HIF-1α accumulation under hypoxia.
as §1

[1] = test system: HIF-1α-mediated HRE transcriptional activity; assay: Assay for inhibition of HIF-1α-mediated transcriptional activity (HRE reporter assay); type: cell-based, human; details: Homo sapiens, HCT-116, HCT116 cells, 12 hours under hypoxia (1% O2), read-out: Inhibitory activity against HIF-1α (10 μM)
Description: <Experiment 1> Assay for Inhibition of HIF-1α-Mediated Transcriptional Activity (HRE Reporter Assay)
The compounds can be developed as anti-cancer drugs, because the compounds inhibiting HIF-1α-mediated HRE transcriptional activity induced by hypoxia can suppress the growth and metastasis of cancer.
Inhibitory effects of the compounds according to the present invention, from Formula I-1 to I-42, on HIF-1α-mediated transcriptional activity were evaluated using this assay. pGL3-HRE-luciferase vector was constructed as follows. Six copies of HRE (Hypoxia Responsive Element, 5′-ACGTG-3′) from human VEGF genes were inserted into the multi-cloning site of a pGL3-basic vector (Promega). A luciferase gene was used as a reporter gene.
In detail, HCT116(ATCC #CCL-247) human colon cancer cells were seeded in 48-well cell culture plates. The cells were co-transfected with 25 ng of pGL3-HRE-luciferase and 2.5 ng of Renila control vectors using Polyfect reagent next day. After 24 hours of incubation, the cells were incubated for an additional 4 hours with replaced cell culture media. The cells were treated with various concentrations (0, 1, 3, 5, 10, and 20 μM) of the above compounds according to the present invention and incubated for 12 hours under hypoxia (1% O2, 94% N2, and 5% CO2). The luciferase assay was performed using a dual-luciferase reporter assay system (Promega). After cell lysate preparation with RIPA buffer, induced luciferase activity under hypoxic conditions was determined to examine inhibitory effects of the compounds according to the present invention, from Formula I-1 to I-42, on HIF-1α-mediated transcriptional activity.

[2] = test system: HCT116 colon cancer cells; assay: In vivo anti-cancer activity by oral administration, HCT116 tumor in nude mice; design: species or system BALB/c nu/nu mice; details: for inhibition in vivo at 20 mg/kg: Mus musculus
Description: <Example 4> In Vivo Anti-Cancer Activity of Compounds by Oral Administration
(§2) In vivo anti-cancer activity of the compounds according to the present invention, I-3, I-6, I-8, I-16, I-19, I-22, I-23, and I-24, was measured in mice to evaluate in vivo efficacy by oral administration. Specifically, the nude mice were divided into test groups and control groups, each consisting of 4 mice. In vivo efficacy was evaluated by measuring body weight, tumor volume, and tumor weight.
(§3) Female nude mice 6 weeks old (BALB/c nu/nu, Charles River) were bred in germ-free breeding rooms maintained at constant temperature and humidity. After the nude mice were anesthetized, HCT116 colon cancer cells were implanted at a count of […] cells/mouse into the rectum in BALB/c nu/nu mice and then the incisions were closed with surgical clips. The size of tumor was measured by a caliper. When the size of transplanted tumor reached to 50˜60 mm^3, the above compounds according to the present invention were administered. In more detail, after the above compounds in test groups were dissolved at concentration of 20 mg/kg in a solvent containing 80% of physiological saline, 10% of DMAC (dimethylacetamide), and 10% Tween 80 (hereinafter referred to as ‘Solvent A’), […] of dissolved compounds were orally administered once a day. Mice in control groups were treated with […] of Solvent A alone once daily.
(§4) Tumor volume and body weight were measured to identify in vivo anti-cancer activity of the compounds according to the present invention by repetitive oral administration. Tumor volume and tumor growth inhibition (TGI) in Table 2 were calculated according to the below Mathematic FIG. 1 and FIG. 2, respectively. Tumor growth inhibition was converted to a percentage in Table 2.

[3] = Body weight change and side effects during 14 days of oral treatment in nude mice; type: in vivo, BALB/c nu/nu mice
Description: as §2, §3, §4
Moreover, severe side effects and statistically significant changes of body weight in all mice treated compounds were not shown for 14 days, comparing to control groups treated with vehicle. (Table 3)

[4] = HCT-116, 72 h, day 3, 20 mg/kg oral once a day, read-out: TGI (tumor growth inhibition), tumor volume
[5] = HCT-116, 120 h, day 5, 20 mg/kg oral once a day, read-out: TGI (tumor growth inhibition), tumor volume
[6] = HCT-116, 168 h, day 7, 20 mg/kg oral once a day, read-out: TGI (tumor growth inhibition), tumor volume
[7] = HCT-116, 240 h, day 10, 20 mg/kg oral once a day, read-out: TGI (tumor growth inhibition), tumor volume
[8] = HCT-116, 288 h, day 12, 20 mg/kg oral once a day, read-out: TGI (tumor growth inhibition), tumor volume
[9] = HCT-116, 336 h, day 14, 20 mg/kg oral once a day, read-out: TGI (tumor growth inhibition), tumor volume
[10] = HCT-116, 336 h, day 14, 20 mg/kg oral once a day, read-out: TGI (tumor growth inhibition), tumor weight
[11] = day 3, 20 mg/kg oral once a day
[12] = day 5, 20 mg/kg oral once a day
[13] = day 7, 20 mg/kg oral once a day
[14] = day 10, 20 mg/kg oral once a day
[15] = day 12, 20 mg/kg oral once a day
[16] = day 14, 20 mg/kg oral once a day
[17] = day 0, 20 mg/kg oral once a day

Row | SMILES | inhibition at 10 µM [1] | inhibition in vivo at 20 mg/kg [2, 4] | inhibition in vivo at 20 mg/kg [2, 5] | inhibition in vivo at 20 mg/kg [2, 6] | inhibition in vivo at 20 mg/kg [2, 7] | inhibition in vivo at 20 mg/kg [2, 8] | inhibition in vivo at 20 mg/kg [2, 9] | inhibition in vivo at 20 mg/kg [2, 10] | Tumor volume [2, 11] | Tumor volume [2, 12] | Tumor volume [2, 13] | Tumor volume [2, 14] | Tumor volume [2, 15] | Tumor volume [2, 16] | Tumor weight [2, 16] | Body weight change [3, 17] | Body weight change [3, 11] | Body weight change [3, 12] | Body weight change [3, 13] | Body weight change [3, 14] | also measured
1 | CN1CCN(C(=O)CCOc2ccc(C34CC5CC(CC(C5)C3)C4)cc2)CC1 [Compound I-8, 3-(4-(Adamantan-1-yl)phenoxy)-1-(4-methylpiperazin-1-yl)propan-1-one] | 51 to 75% | 27.6% | 29% | 30% | 29.3% | 28.7% | 29.3% | 31% | 24.6 ± 5.1 mm^3 | 65.5 ± 9.0 mm^3 | 122.2 ± 7.9 mm^3 | 184.3 ± 10.0 mm^3 | 319.7 ± 22.0 mm^3 | 471.1 ± 29.0 mm^3 | 1634.6 ± 357.2 mg | 100.0 ± 0.0% | 102.2 ± 2.8% | 103.4 ± 2.8% | 102.6 ± 2.2% | 102.9 ± 1.5% | GAPDH expression levels (GAPDH): did not affect GAPDH expression levels; HIF-1α degradation (HIF-1α): promoted HIF-1α degradation; inhibitory effects on HIF-1α accumulation (HIF-1α): significant inhibitory effects on HIF-1α accumulation; Body weight change [3, 15]: 101.9 ± 1.0%; Body weight change [3, 16]: 101.7 ± 2.6%
2 | Cc1cc(C23CC4CC(CC(C4)C2)C3)ccc1OCC(=O)N1CC[N+](C)(C)CC1.[I-] [Compound I-16, 4-(2-(4-(Adamantan-1-yl)-2-methylphenoxy)acetyl)-1,1-dimethylpiperazin-1-ium iodide] | 51 to 75% | 28.6% | 27.8% | 27.9% | 28.8% | 28.6% | 29.2% | 30.2% | 24.2 ± 6.1 mm^3 | 66.7 ± 14.2 mm^3 | 125.8 ± 13.6 mm^3 | 185.7 ± 20.2 mm^3 | 320.4 ± 33.9 mm^3 | 471.8 ± 26.0 mm^3 | 1655.7 ± 288.4 mg | 100.0 ± 0.0% | 104.1 ± 1.6% | 104.2 ± 2.8% | 104.3 ± 1.9% | 105.8 ± 4.2% | GAPDH expression levels (GAPDH): did not affect GAPDH expression levels; HIF-1α degradation (HIF-1α): promoted HIF-1α degradation; inhibitory effects on HIF-1α accumulation (HIF-1α): significant inhibitory effects on HIF-1α accumulation; Body weight change [3, 15]: 103.2 ± 3.6%; Body weight change [3, 16]: 102.3 ± 3.7%
3 | CN1CCN(C(=O)C(C)(C)Oc2ccc(C34CC5CC(CC(C5)C3)C4)cc2)CC1 [Compound I-23, 2-(4-(Adamantan-1-yl)phenoxy)-2-methyl-1-(4-methylpiperazin-1-yl)propan-1-one] | 76 to 100% | 13.5% | 14.8% | 12.7% | 13.1% | 13.1% | 14.6% | 14.5% | 40.9 ± 8.2 mm^3 | 98.0 ± 13.9 mm^3 | 182.4 ± 19.9 mm^3 | 352.7 ± 53.6 mm^3 | 577.3 ± 74.1 mm^3 | 987.6 ± 143.7 mm^3 | 3659.9 ± 434.8 mg | 100.0 ± 0.0% | 100.8 ± 1.1% | 101.0 ± 1.6% | 100.9 ± 0.7% | 101.9 ± 1.1% | Body weight change [3, 15]: 101.6 ± 1.3%; Body weight change [3, 16]: 102.0 ± 2.0%
4 | CN(C)CCNC(=O)C(C)(C)Oc1ccc(C23CC4CC(CC(C4)C2)C3)cc1 [Compound I-24, 2-(4-(Adamantan-1-yl)phenoxy)-N-(2-(dimethylamino)ethyl)-2-methylpropanamide] | 76 to 100% | 19.5% | 18.4% | 15.4% | 15.8% | 14.3% | 14.4% | 13.9% | 38.1 ± 6.4 mm^3 | 93.8 ± 21.0 mm^3 | 176.8 ± 27.6 mm^3 | 341.7 ± 58.8 mm^3 | 569.1 ± 72.4 mm^3 | 990.1 ± 140.3 mm^3 | 3685.5 ± 357.5 mg | 100.0 ± 0.0% | 103.5 ± 3.0% | 104.0 ± 3.6% | 103.6 ± 3.6% | 105.0 ± 4.0% | Body weight change [3, 15]: 104.9 ± 4.1%; Body weight change [3, 16]: 106.5 ± 4.5%
